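48-hour exposure; five concentrations; linearly interpolated endpoints. GI50: concentration for 50% inhibition of growth. Definition used: TGI = concentration required for complete inhibition of growth.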
Experiments:
Test in all cases: inhibition of tumour cell growth, NCI panel, 48 h
A498 renal = system: A498 renal
EKVX NSCLC = system: EKVX NSCLC
HCT-116 colon = system: HCT-116 colon
IGROV1 ovarian = system: IGROV1 ovarian
M19-MEL melanoma = system: M19-MEL melanoma
NCI-H23 lung = system: NCI-H23 lung
SF-268 CNS = system: SF-268 CNS
SNB-19 CNS = system: SNB-19 CNS
SNB-78 CNS = system: SNB-78 CNS
XF 498 CNS = system: XF 498 CNS
NCI/ADR-RES ovarian = system: NCI/ADR-RES ovarian

SMILES	TGI (A498 renal) [µM]	TGI (EKVX NSCLC) [µM]	TGI (HCT-116 colon) [µM]	TGI (IGROV1 ovarian) [µM]	TGI (M19-MEL melanoma) [µM]	TGI (NCI-H23 lung) [µM]	TGI (SF-268 CNS) [µM]	TGI (SNB-19 CNS) [µM]	TGI (SNB-78 CNS) [µM]	TGI (XF 498 CNS) [µM]	GI50 (EKVX NSCLC) [µM]	GI50 (HCT-116 colon) [µM]	GI50 (IGROV1 ovarian) [µM]	GI50 (NCI-H23 lung) [µM]	GI50 (SF-268 CNS) [µM]	GI50 (SNB-19 CNS) [µM]	GI50 (XF 498 CNS) [µM]	GI50 (A498 renal) [nM]	GI50 (NCI/ADR-RES ovarian) [µM]	TGI (NCI/ADR-RES ovarian) [µM]
Cc1nnc2n1N=C(c1ccccc1)C(c1ccccc1)S2 (stereo not given)	> 100	> 100	> 100	> 100	> 100	64	> 100	> 100	> 100	> 100	–	–	–	–	–	–	–	–	–	–
COC(=O)C1CC(c2ccc(OC)c(OC)c2)OC1=O (mixture of isomers)	> 100	> 100	> 100	> 100	> 100	> 100	> 100	> 100	> 100	> 100	–	–	–	–	–	–	–	–	–	–
COC1(OC)C2(Cl)C3=CCCC=C3C1(Cl)C(Cl)=C2Cl	–	71.5	43.9	> 100	47.4	62.2	> 100	> 100	> 100	50.2	–	–	–	–	–	–	–	–	–	–
Cc1cc(Cl)ccc1NC(=O)CCCC(=O)C1C/C(=N/O)CC/C1=N\O (stereo not given)	> 100	> 100	> 100	> 100	> 100	> 100	> 100	> 100	> 100	> 100	–	–	–	–	–	–	–	–	–	–
Cn1c(=O)oc2cc(C3CCC(=O)N3Cc3csc(-c4ccccc4)n3)ccc21 (stereo not given)	–	> 100	> 100	> 100	> 100	> 100	> 100	> 100	> 100	> 100	–	–	–	–	–	–	–	–	–	–
Cc1cc(=O)[nH]c(NNC(C#N)c2cccc([N+](=O)[O-])c2)n1 (stereo not given)	–	–	> 100	> 100	> 100	> 100	> 100	–	> 100	–	–	–	–	–	–	–	–	–	–	–
CC(=O)[CH-]C(C)=O.CC(=O)[CH-]C(C)=O.[O-]c1ccccc1.[O-]c1ccccc1.[Ti+4]	–	> 100	> 100	> 100	–	> 100	> 100	> 100	–	> 100	> 100	> 100	> 100	> 100	> 100	> 100	> 100	–	–	–
Cc1ccc(C2=CC(=O)c3ccccc3C2=O)n1-c1ccccc1	–	> 100	> 100	> 100	> 100	> 100	> 100	> 100	> 100	> 100	–	–	–	–	–	–	–	–	–	–
O=c1[nH]ccc(CNC23CC4CC(CC(C4)C2)C3)c1O	> 100	> 100	> 100	> 100	> 100	> 100	–	> 100	> 100	> 100	–	–	–	–	–	–	–	–	–	–
CN1CCCC2[C@@H]3CCC4c5nonc5CC[C@]4(C)C3CC[C@@]21C (stereo not given in full)	–	> 100	> 100	> 100	> 100	> 100	–	> 100	> 100	81.8	–	–	–	–	–	–	–	–	–	–
c1cnc2c(c1)-n1cccc1C1(CCCCC1)NN2	–	> 100	> 100	–	–	–	> 100	> 100	–	> 100	–	–	–	–	–	–	–	–	–	–
O=c1c2cccnc2ncn1CCCN1CCCCC1	–	> 100	> 100	> 100	> 100	> 100	> 100	> 100	> 100	> 100	–	–	–	–	–	–	–	–	–	–
O=c1c(Cc2ccccc2)c(O)cc2n1CCC2	> 100	> 100	> 100	> 100	> 100	> 100	> 100	> 100	> 100	> 100	–	–	–	–	–	–	–	–	–	–
CC(C)(C)C#COC(=O)c1ccccc1	> 100	> 100	> 100	> 100	> 100	> 100	> 100	> 100	> 100	–	–	–	–	–	–	–	–	–	–	–
O=C1CC23CCCCCCCCCCC2(C1)CC(=O)C3 (stereo not given)	–	> 100	–	83	48.4	> 100	> 100	76.3	–	49.2	–	–	–	–	–	–	–	–	–	–
CC(C)C[C@@H](N)[C@@H](O)C(=O)N[C@H](C(=O)N[C@H](C(=O)N[C@@H](CC(=O)O)C(=O)O)C(C)C)C(C)C	> 20	> 20	> 20	> 20	–	> 20	> 20	> 20	–	–	> 20	> 20	> 20	> 20	> 20	> 20	–	> 20000	> 20	> 20
O=S(=O)(NC1=NCCN1C(=S)SN1CCn2c1nsc2=S)c1ccc(Cl)cc1	42.2	30.6	21.1	23.4	–	32.6	28	36.4	–	–	13.2	5.15	10.2	14.4	6.5	14.5	–	17400	23.1	60.8
Nc1cc2c3c(cccc3c1)C(=O)N(CCN1CCCC1)C2=O	7.89	54.2	> 35	> 100	–	22.8	30.5	29	–	–	3.69	2.73	1.33	3.33	4.62	3.33	–	2540	3.62	> 51.4
C1=CC(=P(c2ccccc2)(c2ccccc2)c2ccccc2)C=C1	–	82.5	–	24.6	14.2	54.3	75.1	31.6	26.7	12.6	–	–	–	–	–	–	–	–	–	–
COc1ccc2[nH]c(C(=O)N3CCN(C(=O)OCc4ccc5c(Cl)cc(Cl)c(O)c5n4)CC3)cc2c1	2.99	2.97	1.35	1.86	–	3.47	3.02	2.87	–	–	1.61	0.295	0.527	1.7	1.49	1.54	–	1590	1.83	6.37
O=C(CC1=Nc2nnc(CCCCCCCc3nnc4n3C(=O)C(CC(=O)c3ccc5ccccc5c3)=N4)n2C1=O)c1ccc2ccccc2c1	–	> 100	> 100	> 100	> 100	> 100	> 100	> 100	> 100	> 100	–	–	–	–	–	–	–	–	–	–

From PubChem BioAssay (NCI)
